Laboratory results reported in ChEMBL document CHEMBL4145572, “Non-covalent Small-Molecule Kelch-like ECH-Associated Protein 1-Nuclear Factor Erythroid 2-Related Factor 2 (Keap1-Nrf2) Inhibitors and Their Potential for Targeting Central Nervous System Diseases” (J Med Chem, 2018).

Legend:
[1] = target: T1, Keap1/Nrf2 (Homo sapiens, UniProt Q14145); test: Inhibition of Keap1 kelch domain (unknow origin)/Nrf2-ETGE peptide (unknown origin) interaction by fluorescence polarization assay; format: protein assay
[2] = Ratio of unbound drug level in mouse brain to plasma; format: ADME; details: read-out: K(p,uu,brain)
[3] = tested on: MDR1; test: Efflux ratio of apparent permeability in MDCK-MDR1 cells at 10 uM up to 120 mins; format: ADME, cell-based, Canis lupus familiaris; details: dog
[4] = Ratio of unbound drug level in Mdr1a/1b/Bcrp knock-out mouse brain to plasma; format: ADME; details: read-out: K(p,uu,brain)
[5] = target: T1, Keap1/Nrf2; test: Inhibition of full length Flag/His-tagged Keap1 kelch domain (unknown origin)/full length Avi-tagged Nrf2 (unknown origin) interaction after 2.25 hrs by TR-FRET assay; format: protein assay
[6] = target: T2, Kelch-like ECH-associated protein 1 (Homo sapiens, UniProt Q14145); test: Activation of human GST-tagged Keap1-DC (321 to 609 residues) expressed in human Huh transformed cells after 16 hrs by ARE-based steady-glo luciferase reporter gene assay; format: cell-based
[7] = target: T2, Kelch-like ECH-associated protein 1; test: Inhibition of human Keap1 kelch domain (321 to 609 residues) binding to TAMRA-labeled Nrf2-ETGE peptide after 1 hr by fluorescence polarization assay
[8] = target: T1, Keap1/Nrf2; test: Inhibition of Keap1/NRF2 interaction in human BEAS-2B cells assessed as upregulation of NQ01 after 48 hrs by MTT assay; format: cell-based

T1 sequence (Q16236 whole entry, the tested form may be a part): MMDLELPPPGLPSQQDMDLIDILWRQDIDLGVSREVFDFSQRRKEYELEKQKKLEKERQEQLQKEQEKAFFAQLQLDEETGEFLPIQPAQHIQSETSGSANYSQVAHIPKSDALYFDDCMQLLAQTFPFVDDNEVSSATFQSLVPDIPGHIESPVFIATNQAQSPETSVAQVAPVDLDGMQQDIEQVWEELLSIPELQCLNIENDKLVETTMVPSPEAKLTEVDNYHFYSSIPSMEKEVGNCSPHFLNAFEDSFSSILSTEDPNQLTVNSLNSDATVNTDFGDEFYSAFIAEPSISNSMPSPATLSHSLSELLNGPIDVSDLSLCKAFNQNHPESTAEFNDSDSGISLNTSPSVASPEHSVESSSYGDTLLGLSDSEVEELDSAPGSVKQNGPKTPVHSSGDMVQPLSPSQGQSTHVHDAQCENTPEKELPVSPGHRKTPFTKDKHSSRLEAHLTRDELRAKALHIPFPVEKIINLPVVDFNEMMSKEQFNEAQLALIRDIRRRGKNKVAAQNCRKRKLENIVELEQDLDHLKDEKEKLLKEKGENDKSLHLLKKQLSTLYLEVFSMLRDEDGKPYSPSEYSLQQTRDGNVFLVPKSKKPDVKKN
T1 sequence (Q14145 whole entry, the tested form may be a part): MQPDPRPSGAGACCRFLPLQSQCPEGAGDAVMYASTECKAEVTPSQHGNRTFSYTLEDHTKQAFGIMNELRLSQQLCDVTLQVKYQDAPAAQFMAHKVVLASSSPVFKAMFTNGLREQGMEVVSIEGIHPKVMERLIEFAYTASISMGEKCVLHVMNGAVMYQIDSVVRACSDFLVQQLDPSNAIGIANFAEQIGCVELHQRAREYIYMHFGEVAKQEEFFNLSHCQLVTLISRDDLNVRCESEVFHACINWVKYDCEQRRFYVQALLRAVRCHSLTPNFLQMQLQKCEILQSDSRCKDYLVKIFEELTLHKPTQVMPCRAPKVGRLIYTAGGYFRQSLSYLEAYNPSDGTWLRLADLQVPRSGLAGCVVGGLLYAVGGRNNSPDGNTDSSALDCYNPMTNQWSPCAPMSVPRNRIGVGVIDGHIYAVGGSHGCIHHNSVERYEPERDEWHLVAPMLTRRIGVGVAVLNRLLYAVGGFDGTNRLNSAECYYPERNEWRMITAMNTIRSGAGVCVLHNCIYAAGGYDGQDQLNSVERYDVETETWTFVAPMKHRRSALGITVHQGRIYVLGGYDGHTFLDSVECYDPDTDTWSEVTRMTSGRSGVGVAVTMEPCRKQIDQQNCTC
T2 sequence (Q14145 whole entry, the tested form may be a part): as above

IC50 [1] [µM] | Kp uu [2] | efflux ratio at 2 h, 10 µM [3] | Structure (SMILES) | other results
> 100 | 0.3 | 0.7 | O=C1c2ccccc2C(=O)N1C[C@@H]1c2ccccc2CCN1C(=O)C1CCCCC1 | 
 | < 0.01 |  | O=C(O)[C@H]1CCCC[C@H]1C(=O)N1CCc2ccccc2[C@H]1CN1C(=O)c2ccccc2C1=O | Kp uu [4]: 0.4
 |  |  | C[C@H](Oc1cccc(-c2cccc(-n3ncc(C(=O)O)c3[C@@H]3C[C@H]3c3cn(C)nn3)c2)c1)C1CCCCC1 | IC50 [5]: < 10 nM
 |  |  | O=C(NCc1ccccn1)Nc1nnc(-c2ccco2)o1 | EC2 [6]: 1.36 µM
> 100 | 0.9 | 0.7 | O=C(O)[C@H]1CCCC[C@H]1C(=O)N1CCc2ccccc2[C@H]1Cc1ccccc1 | 
 |  |  | CCCC[C@@H]1CCCN1C(=O)c1cccc(-c2cccc(-n3ncc(C(=O)O)c3C3CC3)c2)c1 | IC50 [7]: 10 to 100 nM; EC50 [8]: 79 nM
 | < 0.01 |  | O=C(O)[C@H]1NCCC[C@H]1C(=O)N1CCc2ccccc2[C@H]1CN1C(=O)c2ccccc2C1=O | 
1.1 |  | 7.5 | O=C(O)[C@H]1CCCC[C@H]1C(=O)N1CCc2ccccc2[C@H]1CN1Cc2ccccc2C1=O | 
